The text below walks through data of patent publication US8334315B2, “Substituted aromatic carboxamide and urea derivatives as vanilloid receptor ligands” (Gruenenthal GmbH, priority 2009, dated 2012).

SMILES strings stand for the structures.

The assay has as its target T1, rat-species vanilloid receptor 1 (VR1/TRPV1) (Rattus norvegicus, UniProt O35433).
T1 construct: endogenous in cells; host or cells: primary cells dissociated from rat dorsal root ganglia (DRG), cultured 2-3 days with NGF
Nature of the assay: Functional test on rat VR1, NADA (N-arachidonoyl dopamine) stimulus. It is filed as cell-based. On the set-up: key to Ki (rat) NADA: agonist / partial agonist / no effect: AG=agonist; pAG=partial agonist; NE=no effect. An excerpt: I. Functional Testing Carried Out on the Vanilloid Receptor 1 (VRI/TRPV1 Receptor)
The agonistic or antagonistic effect of the substances to be tested on the rat-species vanilloid receptor 1 (VR1/TRPV1) can be determined using the following assay. In this assay, the influx of Ca^2+ through the receptor channel is quantified with the aid of a Ca^2+-sensitive dye (type Fluo-4, Molecular Probes Europe BV, Leiden, the Netherlands) in a fluorescent imaging plate reader (FLIPR, Molecular Devices, Sunnyvale, USA).
The vertebral column is removed from decapitated rats and placed immediately into cold HBSS buffer (Hank's buffered saline solution, Gibco Invitrogen GmbH, Karlsruhe, Germany), i.e. buffer located in an ice bath, mixed with 1% by volume (per cent by volume) of an AA solution (antibiotic/antimyotic solution, PAA, Pasching, Austria). […] The resulting pellet is respectively taken up in 250 μL of complete medium and the cell count is determined.
The number of cells in the suspension is set to 3×10^5 per ml and 150 μL of this suspension are in each case introduced into a recess in the cell culture plates coated as described hereinbefore. […] The Ca^2+-dependent fluorescence is in this case measured before and after the addition of substances (λex=488 nm, λem=540 nm). Quantification is carried out by measuring the highest fluorescence intensity (FC, fluorescence counts) over time. […]

T1 sequence (O35433 whole entry): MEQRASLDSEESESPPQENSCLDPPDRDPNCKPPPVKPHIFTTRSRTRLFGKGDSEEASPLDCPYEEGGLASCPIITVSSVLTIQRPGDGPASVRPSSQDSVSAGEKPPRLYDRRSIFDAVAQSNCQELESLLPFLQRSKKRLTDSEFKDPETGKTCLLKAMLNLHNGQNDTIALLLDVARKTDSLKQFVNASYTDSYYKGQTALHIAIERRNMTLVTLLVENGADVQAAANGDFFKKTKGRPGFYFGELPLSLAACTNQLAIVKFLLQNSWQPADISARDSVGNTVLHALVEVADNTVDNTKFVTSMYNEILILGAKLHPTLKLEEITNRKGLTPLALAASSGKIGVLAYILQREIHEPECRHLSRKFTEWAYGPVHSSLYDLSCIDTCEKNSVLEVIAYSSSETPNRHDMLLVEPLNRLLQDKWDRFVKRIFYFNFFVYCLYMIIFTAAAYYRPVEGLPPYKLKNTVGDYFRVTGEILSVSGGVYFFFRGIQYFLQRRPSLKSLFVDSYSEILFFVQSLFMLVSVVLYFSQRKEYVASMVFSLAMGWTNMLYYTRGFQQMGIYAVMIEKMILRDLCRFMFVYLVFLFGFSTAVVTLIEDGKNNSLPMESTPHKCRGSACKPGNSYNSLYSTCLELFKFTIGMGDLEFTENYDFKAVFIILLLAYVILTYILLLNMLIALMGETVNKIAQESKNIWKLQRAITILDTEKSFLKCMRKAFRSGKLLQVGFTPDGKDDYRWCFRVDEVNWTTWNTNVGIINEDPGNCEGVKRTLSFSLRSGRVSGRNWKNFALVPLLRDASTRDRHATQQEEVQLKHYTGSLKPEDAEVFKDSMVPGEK

As for `Cc1nc2ccc(C(C)C(=O)NCc3cc(C(F)(F)F)nn3-c3cccc(Cl)c3)cc2s1` (centres unmarked) [Example 45, N-((1-(3-chlorophenyl)-3-(trifluoromethyl)-1H-pyrazol-5-yl)methyl)-2-(2-methylbenzo[d]thiazol-6-yl)propanamide], the “Ki (rat) NADA: agonist / partial agonist / no effect” value is on record as “AG”. With `CC(C)(C)c1cc(CNC(=O)Nc2ccc3c(c2)CCC3)n(-c2cccc(Cl)c2)n1` [Example 79, 1-((3-tert-butyl-1-(3-chlorophenyl)-1H-pyrazol-5-yl)methyl)-3-(2,3-dihydro-1H-inden-5-yl)urea], the Ki came out at 39.1 nM.

One may read the Ki as a dissociation constant, usually derived from enzyme kinetics or from competition with a known ligand.
